Our source for the IC50 values is patent US20230349907A1, “BIOPROBES FOR LYSYL OXIDASES AND USES THEREOF” (Pharmaxis Ltd., priority 2020, published 2023).

One assay has as its target Bovine LOX (Bos taurus (Bovine), UniProt P33072). Briefly: LOX inhibition, peroxidase-coupled Amplex Red assay. To be noted: 30 min preincubation at 37° C. Format: biochemical. The source says:
(§1) Method to Determine the Ability of Compounds of the Invention to Inhibit LOX and LOXL1-4 from Different Sources […] S., Trackman P. C. and Kagan H. M., Reaction of aortic lysyl oxidase with beta-aminoproprionitrile. J Biol Chem 1983; 258: 4331-4338). There are five LOX family members; these are LOX, LOXL1, LOXL2, LOXL3 and LOXL4. LOX and LOXL family members can be acquired as recombinant active proteins from commercial sources, or extracted from animal tissues like bovine aorta, tendons, pig skin; or prepared from cell cultures. The inhibitory effects of the compounds of the present invention were tested against the given LOX-LOXL preparation using a high-throughput coupled colorimetric method (Holt A. and Palcic M., A peroxidase-coupled continuous absorbance plate-reader assay for flavin monoamine oxidases, copper-containing amine oxidases and related enzymes. Nat. Protoc. 2006; 1: 2498-2505). The assay was developed using either 384 or 96 well format. […] Test compounds were dissolved in DMSO and tested in a Concentration Response Curve (CRC) with 11 data points, typically in the micromolar or nanomolar range after incubation with the enzyme for 30 min at 37° C. 25 μL of a reaction mixture containing twice the KM concentration of putrescine (Sigma Aldrich, e.g. 20 mM for LOX, or 10 mM for LOXL2 and LOXL3), 120 μM Amplex Red (Sigma Aldrich) and 1.5 U/mL horseradish peroxidase (Sigma Aldrich) prepared in 1.2 M urea, 50 mM sodium borate buffer (pH 8.2) were then added to the corresponding wells. The above volumes were doubled in the case of 96 well plates. The fluorescence (RFU) was read every 2.5 m n for 30 m u […], excitation 565 nm and emission 590 nm (Optima; BMG labtech). The slope of the kinetics for each well was calculated using MARS data analysis software (BMG labtech) and this value was used to deduce the IC50 value (Dotmatics).

The next assay concerns the target rhLOXL2 (Homo sapiens (Human), UniProt Q9Y4K0). Briefly: LOXL2 inhibition, peroxidase-coupled Amplex Red assay. Format: biochemical. The settings on record: 30 min preincubation at 37° C.
Source text: as §1

pIC50: −log10 of the molar value. Structures can show the parent of a compound that is named as a salt. Where only a bound is given, the exact number is not on record here.

rhLOXL2, sequence (Q9Y4K0 26-774): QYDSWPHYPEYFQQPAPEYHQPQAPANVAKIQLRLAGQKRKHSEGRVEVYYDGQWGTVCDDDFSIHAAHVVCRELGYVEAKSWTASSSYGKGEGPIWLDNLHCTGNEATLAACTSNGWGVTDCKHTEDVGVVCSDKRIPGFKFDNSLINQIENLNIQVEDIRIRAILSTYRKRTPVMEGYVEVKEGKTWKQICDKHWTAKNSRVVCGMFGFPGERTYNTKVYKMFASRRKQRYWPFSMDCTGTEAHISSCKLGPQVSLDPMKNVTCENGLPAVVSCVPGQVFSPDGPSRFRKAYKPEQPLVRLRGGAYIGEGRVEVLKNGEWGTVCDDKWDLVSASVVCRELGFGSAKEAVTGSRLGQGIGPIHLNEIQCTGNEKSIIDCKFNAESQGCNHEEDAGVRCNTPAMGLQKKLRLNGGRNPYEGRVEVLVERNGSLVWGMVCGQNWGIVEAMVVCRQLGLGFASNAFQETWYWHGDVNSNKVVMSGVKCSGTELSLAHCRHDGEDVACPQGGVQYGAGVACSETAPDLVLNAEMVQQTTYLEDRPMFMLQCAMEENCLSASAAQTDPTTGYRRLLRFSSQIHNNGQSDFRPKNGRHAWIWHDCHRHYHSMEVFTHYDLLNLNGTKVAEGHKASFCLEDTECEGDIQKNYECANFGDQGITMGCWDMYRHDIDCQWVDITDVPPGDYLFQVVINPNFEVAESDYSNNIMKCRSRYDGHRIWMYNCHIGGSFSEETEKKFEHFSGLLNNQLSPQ
Bovine LOX, sequence (P33072 170-418): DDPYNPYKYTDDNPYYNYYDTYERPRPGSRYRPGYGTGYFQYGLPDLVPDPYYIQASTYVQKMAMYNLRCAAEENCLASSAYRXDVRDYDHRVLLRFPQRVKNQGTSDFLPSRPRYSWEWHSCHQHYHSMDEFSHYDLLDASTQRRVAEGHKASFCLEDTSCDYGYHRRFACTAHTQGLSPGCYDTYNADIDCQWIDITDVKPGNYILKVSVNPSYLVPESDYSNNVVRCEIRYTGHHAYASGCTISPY

For `Cc1c(-c2cccc(S(=O)(=O)N(C)C)c2)c2cc(C(=O)NCCCCCNC(=O)CCCC[C@@H]3SC[C@@H]4NC(=O)N[C@@H]43)ccc2n1C/C(F)=C/CN` [Compound 1-2, 1-((Z)-4-amino-2-fluorobut-2-en-1-yl)-3-(3-(N,N-dimethylsulfamoyl)phenyl)-2-methyl-N-(5-(5-((3aS,4S,6aR)-2-oxohexahydro-1H-thieno[3,4-d]imidazol-4-yl)pentanamido)pentyl)-1H-indole-5-carboxamide], the pIC50 was below 6.52 against Bovine LOX and above 6.52 at rhLOXL2.
On to `Cc1c(-c2cccc(S(=O)(=O)N(C)C)c2)c2cc(C(=O)Nc3ccc4c(c3)n(CCn3cc(CCNC(=O)CCCC[C@@H]5SC[C@@H]6NC(=O)N[C@@H]65)nn3)c(=O)n4CCn3cc(CCNC(=O)CCCC[C@@H]4SC[C@@H]5NC(=O)N[C@@H]54)nn3)ccc2n1C/C(F)=C/CN` [Compound 1-4, N,N′-((((5-(1-((Z)-4-amino-2-fluorobut-2-en-1-yl)-3-(3-(N,N-dimethylsulfamoyl)phenyl)-2-methyl-1H-indole-5-carboxamido)-2-oxo-1H-benzo[d]imidazole-1,3(2H)-diyl)bis(ethane-2,1-diyl))bis(1H-1,2,3-triazole-1,4-diyl))bis(ethane-2,1-diyl))bis(5-((3aS,4S,6aR)-2-oxohexahydro-1H-thieno[3,4-d]imidazol-4-yl)pentanamide) hydrochloride], for which the pIC50 against Bovine LOX is below 6.52; on rhLOXL2, above 6.52.
In the same order, the values of `CN(C)S(=O)(=O)c1ccc(C(OCc2ccc(-n3cc(CNC(=O)CCOCCOCCOCCOCCNC(=O)CCCC[C@@H]4SC[C@@H]5NC(=O)N[C@@H]54)nn3)cc2)c2cn(C/C(F)=C/CN)nn2)cc1` (stereo partly drawn) [Compound 1-16, N-((1-(4-(((1-((Z)-4-amino-2-fluorobut-2-en-1-yl)-1H-1,2,3-triazol-4-yl)(4-(N,N-dimethylsulfamoyl)phenyl)methoxy)methyl)phenyl)-1H-1,2,3-triazol-4-yl)methyl)-1-(5-((3aS,4S,6aR)-2-oxohexahydro-1H-thieno[3,4-d]imidazol-4-yl)pentanamido)-3,6,9,12-tetraoxapentadecan-15-amide hydrochloride] are below 6.52 and above 6.52.
For `Cc1c(-c2cccc(S(=O)(=O)N(C)C)c2)c2cc(C(=O)Nc3cc(C(=O)NCCCCCNC(=O)CCCC[C@@H]4SC[C@@H]5NC(=O)N[C@@H]54)cc(C(=O)NCCCCCNC(=O)CCCC[C@@H]4SC[C@@H]5NC(=O)N[C@@H]54)c3)ccc2n1C/C(F)=C/CN` [Compound 1-5, 5-(1-((Z)-4-amino-2-fluorobut-2-en-1-yl)-3-(3-(N,N-dimethylsulfamoyl)phenyl)-2-methyl-1H-indole-5-carboxamido)-N^1,N^3-bis(5-(5-((3aS,4S,6aR)-2-oxohexahydro-1H-thieno[3,4-d]imidazol-4-yl)pentanamido)pentyl)isophthalamide hydrochloride], the pIC50 is below 6.52 on Bovine LOX and above 6.52 on rhLOXL2.
`NC/C=C(\F)CS(=O)(=O)c1ccccc1C(=O)NCCCCCNC(=O)CCCC[C@@H]1SC[C@@H]2NC(=O)N[C@@H]21` [Compound 1-8, 2-(((Z)-4-amino-2-fluorobut-2-en-1-yl)sulfonyl)-N-(5-(5-((3aS,4S,6aR)-2-oxohexahydro-1H-thieno[3,4-d]imidazol-4-yl)pentanamido)pentyl)benzamide hydrochloride]: the pIC50 on Bovine LOX and on rhLOXL2 was below 6.52 each time.
On to `NC/C=C(\F)CS(=O)(=O)c1cccc(C(=O)NCCCCCNC(=O)CCCC[C@@H]2SC[C@@H]3NC(=O)N[C@@H]32)c1` [Compound 1-9, 3-(((Z)-4-amino-2-fluorobut-2-en-1-yl)sulfonyl)-N-(5-(5-((3aS,4S,6aR)-2-oxohexahydro-1H-thieno[3,4-d]imidazol-4-yl)pentanamido)pentyl)benzamide hydrochloride], for which the pIC50 on Bovine LOX and on rhLOXL2 was below 6.52 in each case.
